# From patent US4868203A, “Bacterial substance and pharmaceutical composition thereof” (Kabushikikaisha Ueno Seiyaku Oyo Kenkyujo, priority 1986, dated 1989)
# Legend:
# [1] = system: Xanthomonas campestris PV citri
# Pasteurella piscicida = experiment: microbe, parasite or virus in culture; format: cell-based; settings: Photobacterium damselae
# [2] = Storage life of kamaboko, rot-proof property (Test Example 4); settings: 0.2%, pH 6.58, 30° C.
# Protocol: Fish paste was prepared by adding NaCl (2.5%), chemical seasoning (0.8%), starch (5%) and ice water (10%) based on frozen surimi of walleye pollack (4 kg) and cutting by a silent cutter for 10 minutes. Predetermined amount of bacterial substance UFC-N11 based on the resulting fish paste (2 kg) was added and completely mixed in a small mixer for 5 minutes. About 100 g fish paste were enclosed with polyvinylidene chloride film (spread width:45 mm), boiled at 90° C. for 30 minutes, quenched, left overnight and then tested for rot-proof property.
# The test was conducted as follows. As the complete package products, 10 pieces/group of kamaboko processed by casing method samples and, as the simplified package products, 10 pieces/group prepared by peeling off the casing under sterilized condition, cutting into 2 round slices (thickness: 10 mm) by a sterilized knife and placing in a sterilized plastic Petri dish. were placed in a thermostatic chamber at 30° C. and evaluated by macroscopically observation. The evaluation uses five-level scale shown below. The period until the average evaluation value of 1 is attained is defined as the storage life.
SMILES,"Prevention ([1]; Streptomycin, concentration printed as 0 ppm, 14 days) [%]",Damage ([1]; in vivo),MIC (Pasteurella piscicida; strain AT-1) [µg/mL],MIC (Pasteurella piscicida; strain AT-17) [µg/mL],MIC (Pasteurella piscicida; strain KGP86041) [µg/mL],MIC (Pasteurella piscicida; strain MEP35) [µg/mL],MIC (Pasteurella piscicida; strain MEP151) [µg/mL],MIC (Pasteurella piscicida; strain MS86115) [µg/mL],MIC (Pasteurella piscicida; strain MS86169) [µg/mL],MIC (Pasteurella piscicida; strain SP6275) [µg/mL],MIC (Pasteurella piscicida; strain SP6291) [µg/mL],MIC (Pasteurella piscicida; strain WP96) [µg/mL],"Storage life, Complete package [2] [days]","Storage life, simplified package [2] [days]"
"[H]/N=C(/N)N[C@H]1[C@H](O)[C@@H](O)[C@H](O[C@@H]2O[C@@H](C)[C@](O)(C=O)[C@H]2O[C@@H]2O[C@@H](CO)[C@H](O)[C@@H](O)[C@@H]2NC)[C@@H](N/C(N)=N\[H])[C@@H]1O [Streptomycin, reference compound]",30.3,nil,,,,,,,,,,,,
O=C(O)c1ccc(/C=C/c2ccc([N+](=O)[O-])o2)cc1 [Nifurstyrenic acid],,,1.25,0.31,2.5,2.5,0.31,0.31,2.5,0.63,0.16,0.31,,
"C/C=C/C=C/C(=O)O [Sorbic acid, reference compound]",,,,,,,,,,,,,12.0,7.0
CC1(C)S[C@@H]2[C@H](NC(=O)[C@H](N)c3ccccc3)C(=O)N2[C@H]1C(=O)O [Ampicillin],,,> 10,> 10,0.039,0.039,> 10,0.039,> 10,0.039,> 10,0.078,,
CCn1cc(C(=O)O)c(=O)c2cc3c(cc21)OCO3 [Oxolinic acid],,,1.25,1.25,0.078,1.25,1.25,1.25,0.078,1.25,0.039,0.039,,
